Experimental data reported in patent US20240228512A1, “ACYCLIC OXAZEPINE COMPOUNDS COMPRISING A 6-AZA MOIETY AND USES THEREOF” (Genentech, Inc., priority 2022, published 2024).

What was measured:
[1] = test system: SW480 cells; assay: SW480 CTG proliferation assay; assay type: cell-based; details: Homo sapiens
[2] = test system: SW620 PERK; assay: SW620 PERK assay; assay type: cell-based; details: Homo sapiens, SW-620, SW620, PERK
[3] = test system: SW620 cells; assay: SW620 3D proliferation assay (CellTiter-Glo); assay type: cell-based; details: Homo sapiens, SW-620, 168 h, SW620, 3D culture, 7 days, read-out: SW620 CTG IC50
How it was run: (§1)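 Cells were seeded in ultra-low attachment plates (3000 or 1000 cells/well for 96- or 384-well format) in RPMI-1640, 10% FBS, 2 mM L-glutamine and cultured overnight at 37 °C/5% CO2 to form spheroids. Compounds were added by 333-fold dilution from DMSO for 7 days. Viability was read as CellTiter-Glo 3D ATP luminescence, with IC50 from a 4-parameter logistic fit.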

[4] = test system: H1975 cells; assay: H1975 CTG proliferation assay; assay type: cell-based; details: Homo sapiens, NCI-H1975, H1975, CTG
[5] = test system: HPAC cells; assay: HPAC 3D proliferation assay (CellTiter-Glo); assay type: cell-based; details: Homo sapiens, 168 h, 3D culture, 7 days, read-out: HPAC CTG IC50
How it was run: as §1

[6] = molecular target: recombinant human KRAS wild type (SOS1-mediated nucleotide exchange) (Homo sapiens (Human), UniProt P01116); assay: KRAS biochemical assay, BODIPY-GDP exchange TR-FRET (WT-GDP HTRF)
[7] = molecular target: recombinant human mutant KRas G12V (SOS1-mediated nucleotide exchange) (Homo sapiens (Human), UniProt P01116, G12V); assay: KRAS biochemical assay, BODIPY-GDP exchange TR-FRET (G12V-GDP HTRF)
Sequence of recombinant human mutant KRas G12V (SOS1-mediated nucleotide exchange) (P01116-2 other isoform, or with tags, fused parts or gaps G12V): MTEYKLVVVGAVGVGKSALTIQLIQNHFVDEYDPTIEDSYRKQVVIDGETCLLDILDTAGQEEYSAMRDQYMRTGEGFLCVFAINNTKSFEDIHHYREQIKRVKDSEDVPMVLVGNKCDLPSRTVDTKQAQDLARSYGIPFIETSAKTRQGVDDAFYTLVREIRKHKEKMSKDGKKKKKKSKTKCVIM

Sequence of recombinant human KRAS wild type (SOS1-mediated nucleotide exchange) (P01116-2 other isoform, or with tags, fused parts or gaps): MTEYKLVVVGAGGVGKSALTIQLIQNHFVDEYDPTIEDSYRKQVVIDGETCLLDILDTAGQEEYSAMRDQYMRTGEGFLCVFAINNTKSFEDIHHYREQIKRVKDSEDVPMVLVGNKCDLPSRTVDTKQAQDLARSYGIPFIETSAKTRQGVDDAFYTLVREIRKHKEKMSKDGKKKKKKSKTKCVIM

Row | Compound | IC50 [1] [nM] | IC50 [2] [nM] | IC50 [3] [nM] | IC50 [4] [nM] | IC50 [5] [nM] | IC50 [6] [nM] | IC50 [7] [nM]
1 | Cc1c(F)c(N)c(F)c(-c2nc3c4c(nc(OC[C@@]56CCCN5C[C@H](F)C6)nc4c2F)N([C@H](C)c2cccnc2N)CCO3)c1C(F)(F)F [Example 12, 3-((1R)-1-(5-(3-amino-2,4-difluoro-5-methyl-6-(trifluoromethyl)phenyl)-4-fluoro-2-(((2R,7aS)-2-fluorotetrahydro-1H-pyrrolizin-7a(5H)-yl)methoxy)-8,9-dihydro-10H-7-oxa-1,3,6,10-tetraazacyclohepta[de]naphthalen-10-yl)ethyl)pyridin-2-amine] | 2.8 | 1.62 | 5.63 | 59.4 | 14.7 | – | –
2 | C[C@H](c1cccnc1N)N1CCOc2nc(-c3cc(O)cc4cccc(F)c34)c(F)c3nc(OC[C@@]45CCCN4C[C@H](F)C5)nc1c23 [Example 25, 4-(10-((R)-1-(2-aminopyridin-3-yl)ethyl)-4-fluoro-2-(((2R,7aS)-2-fluorotetrahydro-1H-pyrrolizin-7a(5H)-yl)methoxy)-9,10-dihydro-8H-7-oxa-1,3,6,10-tetraazacyclohepta[de]naphthalen-5-yl)-5-fluoronaphthalen-2-ol] | 110 | 27.6 | 8.81 | 83.1 | 250 | – | –
3 | C#Cc1cccc2cc(O)cc(-c3nc4c5c(nc(OCC67CCN6CC(F)(F)C7)nc5c3F)N([C@H](C)c3cccnc3N)CCO4)c12 (stereo partly drawn) [Example 1, 4-(10-((R)-1-(2-aminopyridin-3-yl)ethyl)-2-((3,3-difluoro-1-azabicyclo[3.2.0]heptan-5-yl)methoxy)-4-fluoro-9,10-dihydro-8H-7-oxa-1,3,6,10-tetraazacyclohepta[de]naphthalen-5-yl)-5-ethynyinaphthalen-2-ol] | 26 | 1.42 | 7 | 47.4 | 144 | – | –
4 | C#Cc1cccc2nc(N)cc(-c3nc4c5c(nc(OC[C@@]67CCCN6C[C@H](F)C7)nc5c3F)N([C@H](C)c3cccnc3N)CCO4)c12 [Example 30, 4-(10-((R)-1-(2-aminopyridin-3-yl)ethyl)-4-fluoro-2-(((2R,7aS)-2-fluorotetrahydro-1H-pyrrolizin-7a(5H)-yl)methoxy)-9,10-dihydro-8H-7-oxa-1,3,6,10-tetraazacyclohepta[de]naphthalen-5-yl)-5-ethynylquinolin-2-amine] | – | 2.65 | 2.67 | 2.59 | 15.8 | 0.114 | 0.06
5 | Cc1c(F)c(N)cc(-c2nc3c4c(nc(OC[C@@]56CCCN5C[C@H](F)C6)nc4c2F)N([C@H](C)c2cncnc2N)CCO3)c1C(F)(F)F [Example 617, 5-((R)-1-(5-(5-amino-4-fluoro-3-methyl-2-(trifluoromethyl)phenyl)-4-fluoro-2-(((2R,7aS)-2-fluorotetrahydro-1H-pyrrolizin-7a(5H)-yl)methoxy)-8,9-dihydro-10H-7-oxa-1,3,6,10-tetraazacyclohepta[de]naphthalen-10-yl)ethyl)pyrimidin-4-amine] | – | 28.8 | 38 | 24.4 | 239 | 0.31 | 0.11
6 | C[C@H](c1cccnc1N)N1CCOc2nc(-c3nc(N)cc4ccccc34)c(F)c3nc(OC[C@@]45CCCN4C[C@H](F)C5)nc1c23 [Example 618, 1-(10-((R)-1-(2-aminopyridin-3-yl)ethyl)-4-fluoro-2-(((2R,7aS)-2-fluorotetrahydro-1H-pyrrolizin-7a(5H)-yl)methoxy)-9,10-dihydro-8H-7-oxa-1,3,6,10-tetraazacyclohepta[de]naphthalen-5-yl)isoquinolin-3-amine] | – | 233 | 393 | 93.2 | 1050 | 3.43 | 0.45
7 | Cc1c(F)c(N)nc(-c2nc3c4c(nc(OC[C@@]56CCCN5C[C@H](F)C6)nc4c2F)N([C@H](C)c2cc(F)cnc2N)CCO3)c1C(F)(F)F [Example 631, 6-(10-((R)-1-(2-amino-5-fluoropyridin-3-yl)ethyl)-4-fluoro-2-(((2R,7aS)-2-fluorotetrahydro-1H-pyrrolizin-7a(5H)-yl)methoxy)-9,10-dihydro-8H-7-oxa-1,3,6,10-tetraazacyclohepta[de]naphthalen-5-yl)-3-fluoro-4-methyl-5-(trifluoromethyl)pyridin-2-amine] | – | 16.5 | 47.3 | 113 | 110 | 0.741 | 0.21
8 | Cc1nc(N)cc(-c2nc3c4c(nc(OC[C@@]56CCN5C[C@]5(CC5(F)F)C6)nc4c2F)N([C@H](C)c2cccnc2N)CCO3)c1C(F)(F)F [Example 605] | – | 11.9 | 11.3 | 4 | 94 | 0.19 | 0.14
